Consider 10 compounds from US10087195B2, “Certain protein kinase inhibitors” (Shanghai Fochon Pharmaceutical Co., Ltd., priority 2014, dated 2018).

One assay concerns COLO-205 cells. Description: COLO-205 cell proliferation assay (MTS), mechanism-based assay for CDK4/6 inhibition. The conditions noted are these: Homo sapiens, compound treatment 48 h, MTS absorbance 490 nm, read-out: COLO205 IC50. As to the method:
To investigate whether a compound is able to inhibit the activity of CDK4/6 in cells, a mechanism-based assay using COLO-205 cell was developed. In this assay, inhibition of CDK4/6 was detected by the inhibition of COLO-205 cells proliferation. COLO-205 cells were cultured in culture flasks to 40-80% confluence in RPMI-1640 plus 10% fetal bovine serum. Cells were collected and plated onto 96-well plates at desired cell density (2000 cells/well). Plates were incubated overnight at 37° C., with 5% CO2 to adhere. Compounds were added to the plates, the final compound concentrations were […], 123.5, 41.2, 13.7, 4.6 and 1.5 nM. Place plates at 37° C., with 5% CO2 for 48 h. After removing the medium, 20 μl MTS/100 μl medium mixture solution were added to each well and incubate the plates for exactly 1.5 hours. Stop the reaction by adding 25 μl 10% SDS per well. Measure absorbance at 490 nm and 650 nm (reference wavelength). IC50 was calculated using GraphPad Prism 5.0.

In a further assay the test system is BE(2)-C Cells. Description: BE(2)-C cell proliferation assay (MTS). The settings on record: Homo sapiens, compound treatment 72 hours. The assay is classed as cell-based. As to the method:
BE(2)-C Cells were plated in 96-well plates with 150 μl culture medium at cell density of 5000 cells/well. Compounds dilution: 20 mM stock solution of all compounds in DMSO. On the day of treatment, compounds were fresh diluted from the stock solution to a working solution (4× of final concentrations) in culture medium. 50 μl of compound mixtures were added to duplicate wells along with 150 μl of cells. 24 hours after BE(2)-C cells were plated, testing compounds were added. Cell proliferation was measured by MTS assay following manufacturer's instruction after compound treatment for 72 hours.

Usually IC50 stands for the point on the concentration scale where inhibition reaches its midpoint. As to `CN1CCc2nc(Nc3ncc4sc(C(=O)N(C)C)c([C@H]5CC[C@H](C)CC5)c4n3)ccc2C1` [Example 88, N,N-dimethyl-2-((6-methyl-5,6,7,8-tetrahydro-1,6-naphthyridin-2-yl)amino)-7-((1r,4r)-4-methylcyclohexyl)thieno[3,2-d]pyrimidine-6-carboxamide], in the assay with COLO-205 cells, the IC50 came to 855 nM.
Regarding `CN(C)C(=O)c1sc2cnc(Nc3ccc4c(n3)CCN(C(=O)CO)C4)nc2c1[C@H]1CC[C@H](C)CC1` [Example 90, 2-((6-(2-hydroxyacetyl)-5,6,7,8-tetrahydro-1,6-naphthyridin-2-yl)amino)-N,N-dimethyl-7-((1r,4r)-4-methylcyclohexyl)thieno[3,2-d]pyrimidine-6-carboxamide], the concentration for half-maximal inhibition (IC50) in the assay with COLO-205 cells worked out at 270 nM.
Consider `CN(C)C(=O)c1cc2cnc(Nc3ccc(N4CCNCC4)cn3)nn2c1C1CCCC1` [Example 5, 7-cyclopentyl-N,N-dimethyl-2-((5-(piperazin-1-yl)pyridin-2-yl)amino)pyrrolo[2,1-f][1,2,4]triazine-6-carboxamide], for which the IC50 with COLO-205 cells was found to be 517 nM; with BE(2)-C Cells, 601 nM.
As for `CN(C)C(=O)c1sc2cnc(Nc3ccc(N4CCNCC4)nn3)nc2c1[C@H]1CC[C@H](C)CC1` [Example 91, N,N-dimethyl-7-((1r,4r)-4-methylcyclohexyl)-2-((6-(piperazin-1-yl)pyridazin-3-yl)amino)thieno[3,2-d]pyrimidine-6-carboxamide], in the assay with COLO-205 cells, the IC50 turned out to be 223 nM.
Consider `CN(C)C(=O)c1sc2cnc(Nc3ccc(N4CCNCC4)cn3)nc2c1C1CCCC1` [Example 1, 7-Cyclopentyl-N,N-dimethyl-2-(5-(piperazin-1-yl)pyridin-2-ylamino)thieno[3,2-d]pyrimidine-6-carboxamide], for which the results for the IC50 in the assay on COLO-205 cells and with BE(2)-C Cells were 1110 nM and 38.5 nM, respectively.
As for `CN(C)C(=O)c1sc2cnc(Nc3ccc4c(n3)CCNC4)nc2c1[C@H]1CC[C@H](C)CC1` [Example 87, N,N-dimethyl-7-((1r,4r)-4-methylcyclohexyl)-2-((5,6,7,8-tetrahydro-1,6-naphthyridin-2-yl)amino)thieno[3,2-d]pyrimidine-6-carboxamide], the IC50 with COLO-205 cells is 450 nM.
Same read-out and setting: then `CC(=O)N1CCc2nc(Nc3ncc4sc(C(=O)N(C)C)c([C@H]5CC[C@H](C)CC5)c4n3)ccc2C1` [Example 89, 2-((6-acetyl-5,6,7,8-tetrahydro-1,6-naphthyridin-2-yl)amino)-N,N-dimethyl-7-((1r,4r)-4-methylcyclohexyl)thieno[3,2-d]pyrimidine-6-carboxamide], with 389 nM.
With `NC(=O)c1sc2cnc(Nc3ccc(N4CCNCC4)cn3)nc2c1C1CCCC1` [Example 73, 7-cyclopentyl-2-((5-(piperazin-1-yl)pyridin-2-yl)amino)thieno[3,2-d]pyrimidine-6-carboxamide], in the assay with COLO-205 cells, the IC50 was 624 nM.
Take `CN(C)C(=O)c1oc2cnc(Nc3ccc(N4CCNCC4)cn3)nc2c1C1CCCC1` [Example 7, 7-cyclopentyl-N,N-dimethyl-2-((5-(piperazin-1-yl)pyridin-2-yl)amino)furo[3,2-d]pyrimidine-6-carboxamide]: in the assay with COLO-205 cells, the 50% inhibitory concentration (IC50) is 711 nM.
With `CN1CCN(c2ccc(Nc3ncc4sc(C(=O)N(C)C)c(C5CCCC5)c4n3)nc2)CC1` [Example 2, 7-Cyclopentyl-N,N-dimethyl-2-(5-(4-methylpiperazin-1-yl)pyridin-2-ylamino)thieno[3,2-d]pyrimidine-6-carboxamide], the IC50 worked out at 339 nM with COLO-205 cells and 24.1 nM with BE(2)-C Cells.
